Experimental data reported in patent US12522607B2, “Substituted pyrazolo[3,4-d]pyrimidines as wee-1 inhibitors” (WIGEN BIOMEDICINE TECHNOLOGY (SHANGHAI) CO., LTD., priority 2020, dated 2026).

Experiments:
[1] = system: HT29 cells; experiment: Antiproliferative activity against HT29 cells (Cell Titer-Lumi, ATP content); type: cell-based; settings: Homo sapiens, HT-29, 72 after compound addition, read-out: HT-29 cells Anti-proliferative activity (IC50 for the inhibition against HT-29 cell growth)
How it was run: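 3000 cells per well, allowed to adhere overnight, then exposed to a gradient dilution of compound for 72 (units as printed). Cellular ATP read by luminescence (Cell Titer-Lumi) as a growth measure; IC50 for growth inhibition calculated.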

[2] = biological target: T1, Wee-1 kinase (Homo sapiens, UniProt P30291); experiment: Inhibitory activity against Wee-1 kinase (Lanthra Screen Wee-1 kinase kit, Tracer 178); type: binding; settings: Wee-1 kinase 5 nM, Tracer 178 50 nM, 1 h room temperature
T1 construct: purchased Invitrogen
T1 sequence (P30291 whole entry): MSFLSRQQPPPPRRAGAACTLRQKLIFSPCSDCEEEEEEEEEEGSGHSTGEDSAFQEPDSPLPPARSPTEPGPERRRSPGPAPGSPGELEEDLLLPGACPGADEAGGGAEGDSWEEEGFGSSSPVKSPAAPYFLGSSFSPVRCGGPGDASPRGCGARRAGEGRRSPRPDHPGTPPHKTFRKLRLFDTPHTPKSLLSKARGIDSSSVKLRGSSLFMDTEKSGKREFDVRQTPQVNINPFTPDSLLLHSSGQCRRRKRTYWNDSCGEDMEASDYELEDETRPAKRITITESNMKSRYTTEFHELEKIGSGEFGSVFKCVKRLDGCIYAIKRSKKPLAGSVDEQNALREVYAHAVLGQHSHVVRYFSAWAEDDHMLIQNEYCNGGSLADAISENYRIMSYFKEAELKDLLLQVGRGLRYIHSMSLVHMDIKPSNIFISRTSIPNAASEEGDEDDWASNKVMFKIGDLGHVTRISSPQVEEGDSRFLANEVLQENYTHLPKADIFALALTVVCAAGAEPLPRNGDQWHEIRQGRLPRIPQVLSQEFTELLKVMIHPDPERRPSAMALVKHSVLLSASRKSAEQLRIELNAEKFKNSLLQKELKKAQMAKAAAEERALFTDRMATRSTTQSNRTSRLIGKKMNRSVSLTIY
How it was run: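 LanthaScreen binding format: Wee-1 kinase (5 nM final) with Eu-anti-GST antibody (2 nM final) and kinase Tracer 178 (50 nM final), compounds serially diluted in DMSO. 1 h at room temperature before reading. IC50 relative to DMSO control.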

C=CCn1c(=O)c2cnc(Nc3ccc(N4CC5(CN(C)C5)C4)c(C)c3)nc2n1-c1ccc(=O)n(C(C)C)n1 [Compound 158]
IC50 [1]: ≤ 1000 nM | IC50 [2]: ≤ 30 nM

C=CCn1c(=O)c2cnc(Nc3ccc(N4CC5(CN(C)C5)C4)c(OC)c3)nc2n1-c1ccc(=O)n(C(C)C)n1 [Compound 159]
IC50 [1]: ≤ 1000 nM | IC50 [2]: ≤ 30 nM

C=CCn1c(=O)c2cnc(Nc3ccc(N4CC5(CCNC5)C4)cc3)nc2n1-c1ccc(=O)n(C(C)C)n1 [Compound 160]
IC50 [1]: 1000 to 3000 nM | IC50 [2]: ≤ 30 nM

C=CCn1c(=O)c2cnc(Nc3ccc(N4CC5(CCNC5)C4)c(C)c3)nc2n1-c1ccc(=O)n(C(C)C)n1 [Compound 161]
IC50 [1]: 1000 to 3000 nM | IC50 [2]: ≤ 30 nM

C=CCn1c(=O)c2cnc(Nc3ccc(N4CC5(CCNC5)C4)c(OC)c3)nc2n1-c1ccc(=O)n(C(C)C)n1 [Compound 162]
IC50 [1]: ≤ 1000 nM | IC50 [2]: ≤ 30 nM

C=CCn1c(=O)c2cnc(Nc3ccc(N4CC5(CCN(C)C5)C4)cc3)nc2n1-c1ccc(=O)n(C(C)C)n1 [Compound 163]
IC50 [1]: ≤ 1000 nM | IC50 [2]: ≤ 30 nM

C=CCn1c(=O)c2cnc(Nc3ccc(N4CC5(CCN(C)C5)C4)c(C)c3)nc2n1-c1ccc(=O)n(C(C)C)n1 [Compound 164]
IC50 [1]: ≤ 1000 nM | IC50 [2]: ≤ 30 nM

C=CCn1c(=O)c2cnc(Nc3ccc(N4CC5(CCN(C)C5)C4)c(OC)c3)nc2n1-c1ccc(=O)n(C(C)C)n1 [Compound 165]
IC50 [1]: ≤ 1000 nM | IC50 [2]: ≤ 30 nM

C=CCn1c(=O)c2cnc(Nc3ccc(N4CC5(CCNCC5)C4)cc3)nc2n1-c1ccc(=O)n(C(C)C)n1 [Compound 166]
IC50 [1]: 1000 to 3000 nM | IC50 [2]: 30 to 100 nM

C=CCn1c(=O)c2cnc(Nc3ccc(N4CC5(CCNCC5)C4)c(C)c3)nc2n1-c1ccc(=O)n(C(C)C)n1 [Compound 167]
IC50 [1]: 1000 to 3000 nM | IC50 [2]: 30 to 100 nM

C=CCn1c(=O)c2cnc(Nc3ccc(N4CC5(CCNCC5)C4)c(OC)c3)nc2n1-c1ccc(=O)n(C(C)C)n1 [Compound 168]
IC50 [1]: 1000 to 3000 nM | IC50 [2]: 30 to 100 nM

C=CCn1c(=O)c2cnc(Nc3ccc(N4CCC5(CNC5)C4)cc3)nc2n1-c1ccc(=O)n(C(C)C)n1 [Compound 169]
IC50 [1]: 1000 to 3000 nM | IC50 [2]: ≤ 30 nM

C=CCn1c(=O)c2cnc(Nc3ccc(N4CCC5(CNC5)C4)c(C)c3)nc2n1-c1ccc(=O)n(C(C)C)n1 [Compound 170]
IC50 [1]: ≤ 1000 nM | IC50 [2]: ≤ 30 nM

C=CCn1c(=O)c2cnc(Nc3ccc(N4CCC5(CNC5)C4)c(OC)c3)nc2n1-c1ccc(=O)n(C(C)C)n1 [Compound 171]
IC50 [1]: ≤ 1000 nM | IC50 [2]: ≤ 30 nM

C=CCn1c(=O)c2cnc(Nc3ccc(N4CCC5(CN(C)C5)C4)cc3)nc2n1-c1ccc(=O)n(C(C)C)n1 [Compound 172]
IC50 [1]: ≤ 1000 nM | IC50 [2]: ≤ 30 nM

C=CCn1c(=O)c2cnc(Nc3ccc(N4CCC5(CN(C)C5)C4)c(C)c3)nc2n1-c1ccc(=O)n(C(C)C)n1 [Compound 173]
IC50 [1]: ≤ 1000 nM | IC50 [2]: ≤ 30 nM

C=CCn1c(=O)c2cnc(Nc3ccc(N4CCC5(CN(C)C5)C4)c(OC)c3)nc2n1-c1ccc(=O)n(C(C)C)n1 [Compound 174]
IC50 [1]: ≤ 1000 nM | IC50 [2]: ≤ 30 nM

C=CCn1c(=O)c2cnc(Nc3ccc(N4CCC5(CC4)CNC5)cc3)nc2n1-c1ccc(=O)n(C(C)C)n1 [Compound 175]
IC50 [1]: 1000 to 3000 nM | IC50 [2]: ≤ 30 nM

C=CCn1c(=O)c2cnc(Nc3ccc(N4CCC5(CC4)CNC5)c(C)c3)nc2n1-c1ccc(=O)n(C(C)C)n1 [Compound 176]
IC50 [1]: ≤ 1000 nM | IC50 [2]: ≤ 30 nM

C=CCn1c(=O)c2cnc(Nc3ccc(N4CCC5(CC4)CNC5)c(OC)c3)nc2n1-c1ccc(=O)n(C(C)C)n1 [Compound 177]
IC50 [1]: ≤ 1000 nM | IC50 [2]: ≤ 30 nM

C=CCn1c(=O)c2cnc(Nc3ccc(N4CCC5(CC4)CN(C)C5)cc3)nc2n1-c1ccc(=O)n(C(C)C)n1 [Compound 178]
IC50 [1]: ≤ 1000 nM | IC50 [2]: ≤ 30 nM

C=CCn1c(=O)c2cnc(Nc3ccc(N4CCC5(CC4)CN(C)C5)c(C)c3)nc2n1-c1ccc(=O)n(C(C)C)n1 [Compound 179]
IC50 [1]: ≤ 1000 nM | IC50 [2]: ≤ 30 nM

C=CCn1c(=O)c2cnc(Nc3ccc(N4CCC5(CC4)CN(C)C5)c(OC)c3)nc2n1-c1ccc(=O)n(C(C)C)n1 [Compound 180]
IC50 [1]: ≤ 1000 nM | IC50 [2]: ≤ 30 nM

C=CCn1c(=O)c2cnc(Nc3ccc(N4CCC5(CCNCC5)CC4)cc3)nc2n1-c1ccc(=O)n(C(C)C)n1 [Compound 181]
IC50 [1]: 1000 to 3000 nM | IC50 [2]: ≤ 30 nM

C=CCn1c(=O)c2cnc(Nc3ccc(N4CCC5(CCNCC5)CC4)c(C)c3)nc2n1-c1ccc(=O)n(C(C)C)n1 [Compound 182]
IC50 [1]: ≤ 1000 nM | IC50 [2]: ≤ 30 nM

C=CCn1c(=O)c2cnc(Nc3ccc(N4CCC5(CCNCC5)CC4)c(OC)c3)nc2n1-c1ccc(=O)n(C(C)C)n1 [Compound 183]
IC50 [1]: ≤ 1000 nM | IC50 [2]: ≤ 30 nM

C=CCn1c(=O)c2cnc(Nc3ccc(N4CCC5(CCN(C)CC5)CC4)cc3)nc2n1-c1ccc(=O)n(C(C)C)n1 [Compound 184]
IC50 [1]: ≤ 1000 nM | IC50 [2]: ≤ 30 nM

C=CCn1c(=O)c2cnc(Nc3ccc(N4CCC5(CCN(C)CC5)CC4)c(C)c3)nc2n1-c1ccc(=O)n(C(C)C)n1 [Compound 185]
IC50 [1]: ≤ 1000 nM | IC50 [2]: ≤ 30 nM

C=CCn1c(=O)c2cnc(Nc3ccc(N4CCC5(CCN(C)CC5)CC4)c(OC)c3)nc2n1-c1ccc(=O)n(C(C)C)n1 [Compound 186]
IC50 [1]: ≤ 1000 nM | IC50 [2]: ≤ 30 nM

C=CCn1c(=O)c2cnc(Nc3ccc(N4CC5(CCN5C)C4)c(C)c3)nc2n1-c1ccc(=O)n(C(C)C)n1 [Compound 187]
IC50 [1]: ≤ 1000 nM | IC50 [2]: ≤ 30 nM

C=CCn1c(=O)c2cnc(Nc3ccc(N4CC5(CCCN5C)C4)c(C)c3)nc2n1-c1ccc(=O)n(C(C)C)n1 [Compound 188]
IC50 [1]: ≤ 1000 nM | IC50 [2]: ≤ 30 nM

C=CCn1c(=O)c2cnc(Nc3ccc(N4CC5(CCCCN5C)C4)c(C)c3)nc2n1-c1ccc(=O)n(C(C)C)n1 [Compound 189]
IC50 [1]: ≤ 1000 nM | IC50 [2]: 30 to 100 nM

C=CCn1c(=O)c2cnc(Nc3ccc(C4CCNCC4)cc3)nc2n1-c1ccc(=O)n(C(C)C)n1 [Compound 190]
IC50 [1]: ≤ 1000 nM | IC50 [2]: ≤ 30 nM

C=CCn1c(=O)c2cnc(Nc3ccc(C4CCN(C)CC4)cc3)nc2n1-c1ccc(=O)n(C(C)C)n1 [Compound 191]
IC50 [1]: ≤ 1000 nM | IC50 [2]: ≤ 30 nM

C=CCn1c(=O)c2cnc(Nc3ccc(C4CCNCC4)c(C)c3)nc2n1-c1ccc(=O)n(C(C)C)n1 [Compound 192]
IC50 [1]: ≤ 1000 nM | IC50 [2]: ≤ 30 nM

C=CCn1c(=O)c2cnc(Nc3ccc(C4CCN(C)CC4)c(C)c3)nc2n1-c1ccc(=O)n(C(C)C)n1 [Compound 193]
IC50 [1]: ≤ 1000 nM | IC50 [2]: ≤ 30 nM

C=CCn1c(=O)c2cnc(Nc3ccc(C4CCNCC4)c(OC)c3)nc2n1-c1ccc(=O)n(C(C)C)n1 [Compound 194]
IC50 [1]: ≤ 1000 nM | IC50 [2]: ≤ 30 nM

C=CCn1c(=O)c2cnc(Nc3ccc(C4CCN(C)CC4)c(OC)c3)nc2n1-c1ccc(=O)n(C(C)C)n1 [Compound 195]
IC50 [1]: ≤ 1000 nM | IC50 [2]: ≤ 30 nM

C=CCn1c(=O)c2cnc(Nc3ccc(C4CCNCC4)c(C(F)(F)F)c3)nc2n1-c1ccc(=O)n(C(C)C)n1 [Compound 196]
IC50 [1]: ≤ 1000 nM | IC50 [2]: ≤ 30 nM

C=CCn1c(=O)c2cnc(Nc3ccc(C4CCN(C)CC4)c(C(F)(F)F)c3)nc2n1-c1ccc(=O)n(C(C)C)n1 [Compound 197]
IC50 [1]: ≤ 1000 nM | IC50 [2]: ≤ 30 nM

C=CCn1c(=O)c2cnc(Nc3ccc(C4CCNCC4)c(CC(F)(F)F)c3)nc2n1-c1ccc(=O)n(C(C)C)n1 [Compound 198]
IC50 [1]: ≤ 1000 nM | IC50 [2]: ≤ 30 nM

C=CCn1c(=O)c2cnc(Nc3ccc(C4CCN(C)CC4)c(CC(F)(F)F)c3)nc2n1-c1ccc(=O)n(C(C)C)n1 [Compound 199]
IC50 [1]: ≤ 1000 nM | IC50 [2]: ≤ 30 nM

C=CCn1c(=O)c2cnc(Nc3ccc(C4(C)CCNCC4)cc3)nc2n1-c1ccc(=O)n(C(C)C)n1 [Compound 200]
IC50 [1]: ≤ 1000 nM | IC50 [2]: ≤ 30 nM

C=CCn1c(=O)c2cnc(Nc3ccc(C4(C)CCN(C)CC4)cc3)nc2n1-c1ccc(=O)n(C(C)C)n1 [Compound 201]
IC50 [1]: ≤ 1000 nM | IC50 [2]: ≤ 30 nM

C=CCn1c(=O)c2cnc(Nc3ccc(C4(C)CCCNC4)cc3)nc2n1-c1ccc(=O)n(C(C)C)n1 (stereo not drawn) [Compound 202]
IC50 [1]: ≤ 1000 nM | IC50 [2]: ≤ 30 nM

C=CCn1c(=O)c2cnc(Nc3ccc(C4(C)CCCN(C)C4)cc3)nc2n1-c1ccc(=O)n(C(C)C)n1 (stereo not drawn) [Compound 203]
IC50 [1]: ≤ 1000 nM | IC50 [2]: ≤ 30 nM

C=CCn1c(=O)c2cnc(Nc3cccc(C4CCNCC4)c3)nc2n1-c1ccc(=O)n(C(C)C)n1 [Compound 204]
IC50 [1]: ≤ 1000 nM | IC50 [2]: ≤ 30 nM

C=CCn1c(=O)c2cnc(Nc3cccc(C4CCN(C)CC4)c3)nc2n1-c1ccc(=O)n(C(C)C)n1 [Compound 205]
IC50 [1]: ≤ 1000 nM | IC50 [2]: ≤ 30 nM

C=CCn1c(=O)c2cnc(Nc3cc(C)cc(C4CCNCC4)c3)nc2n1-c1ccc(=O)n(C(C)C)n1 [Compound 206]
IC50 [1]: ≤ 1000 nM | IC50 [2]: ≤ 30 nM

C=CCn1c(=O)c2cnc(Nc3cc(C)cc(C4CCN(C)CC4)c3)nc2n1-c1ccc(=O)n(C(C)C)n1 [Compound 207]
IC50 [1]: ≤ 1000 nM | IC50 [2]: ≤ 30 nM

C=CCn1c(=O)c2cnc(Nc3cc(F)cc(C4CCNCC4)c3)nc2n1-c1ccc(=O)n(C(C)C)n1 [Compound 208]
IC50 [1]: ≤ 1000 nM | IC50 [2]: ≤ 30 nM

C=CCn1c(=O)c2cnc(Nc3cc(F)cc(C4CCN(C)CC4)c3)nc2n1-c1ccc(=O)n(C(C)C)n1 [Compound 209]
IC50 [1]: ≤ 1000 nM | IC50 [2]: ≤ 30 nM

C=CCn1c(=O)c2cnc(Nc3cc(Cl)cc(C4CCNCC4)c3)nc2n1-c1ccc(=O)n(C(C)C)n1 [Compound 210]
IC50 [1]: ≤ 1000 nM | IC50 [2]: ≤ 30 nM

C=CCn1c(=O)c2cnc(Nc3cc(Cl)cc(C4CCN(C)CC4)c3)nc2n1-c1ccc(=O)n(C(C)C)n1 [Compound 211]
IC50 [1]: ≤ 1000 nM | IC50 [2]: ≤ 30 nM
